These are literature values, as cited in publication PMC10251984, “Interactions of IDO and the Kynurenine Pathway with Cell Transduction Systems and Metabolism at the Inflammation–Cancer Interface” (Cancers, 2023).

What is called IC50 is the concentration at which inhibition is half-maximal.

Read-outs that look alike come from different tables or passages of the source.

For series [1], the system named is activated human CD4+T cells. Set-up: method as in PMID 32641388. Particulars: each compound separately.
The next series has as its system AHR. Also on record: method as in PMID 34025677. The settings on record: AHR antagonist; induction by kynurenine in CD8+ T cells.
The next series concerns T cell. Set-up: method as in PMID 31648326. Particulars: MEK inhibitor.
Series [2] deals with IDO2. Also on record: method as in PMID 29247038. The settings on record: relative to the D-isomer.
On the set-up of series [3]: method as in PMID 29040756, PMID 25330068.
In the next series the test system is Lewis lung carcinomas. Also on record: method as in PMID 32847988. The settings on record: combination with celecoxib.
The subject of series [4] is IDO1. Also on record: method as in PMID 30227893, PMID 35269712. The settings on record: IDO1 inhibitor; read-out: IC50 in direct enzyme assay.
In a further series the test system is multiple myeloma. Also on record: method as in PMID 29089645, PMID 29487385.
In series [5] the test system is Metastatic prostate cancer. Particulars: combination with sipuleucel-T; Phase 2.
The subject of a further series is Metastatic breast cancer. Particulars: compared with taxane; Phase 2.
The subject of series [6] is triple-negative breast cancer, colon and lung syngeneic tumor models. Also on record: method as in PMID 35265193. Particulars: combined with an anti-PD-L1 antibody.
The subject of series [7] is PD-L1. Particulars: disrupts the interaction between Myc and HIF-1α.
In series [8] the test system is PD-L1. Also on record: method as in PMID 33220359.
The test system of series [9] is IDO1. Particulars: COX-2 inhibition; IFNγ-induced.
The subject of series [10] is IDO1. Also on record: method as in PMID 28212885. Particulars: COX-2 inhibitor.
In the next series the test system is T cell activation. Also on record: method as in PMID 35663990. Particulars: glutaminase inhibitor; autoimmune hepatitis.
In series [11] the test system is IDO. Set-up: method as in PMID 32024760. Particulars: IDO activity enhanced.
Series [12] deals with PD-L1. Set-up: method as in PMID 35120895. Particulars: via inhibition of the JAK–STAT–IRF1 pathway.
The subject of series [13] is IDO. Set-up: method as in PMID 35120895. Particulars: via inhibition of the JAK–STAT–IRF1 pathway.
The subject of series [14] is IDO1. Set-up: method as in PMID 36389710.
Series [15] concerns IDO2. Set-up: method as in PMID 36389710.
Another series deals with experimental arthritis. Also on record: method as in PMID 33941676. Particulars: IDO-dependent manner.

As to `CN(C)C(=N)N=C(N)N` [metformin], in series [1], the IFNγ production entry is “inhibit IFNγ production”. On to `Cc1ccccc1N=Nc1ccc(NC(=O)c2ccnn2C)c(C)c1` [CH223191], for which the “induction of PD-1” value with AHR was “blocked the induction of PD-1”. For `CC(=O)Nc1cccc(-n2c(=O)n(C3CC3)c(=O)c3c(Nc4ccc(I)cc4F)n(C)c(=O)c(C)c32)c1` [Trametinib], in the series on T cell, the “T cell viability and proliferation” value was “promote T cell viability and proliferation”. As to `Cn1cc(C[C@H](N)C(=O)O)c2ccccc21` (single isomer, unassigned; isomer 1) [L-isomer, 1-methyl-tryptophan], the “inhibiting IDO2” value with IDO2 [2] is recorded as “much more active”. For the molecule `Clc1cc2c(cc1Cl)Oc1cc(Cl)c(Cl)cc1O2` [TCDD, 2,3,7,8-tetrachloro-dibenzo-dioxin], the metabolism / removal entry in series [3] is recorded as “poorly metabolized”. `Nc1ncnc2c1ncn2[C@@H]1O[C@@H]2COP(=O)(O)O[C@H]3[C@@H](O)[C@H](n4cnc5c(N)ncnc54)O[C@@H]3COP(=O)(O)O[C@H]2[C@H]1O` [CDA, cyclic di-adenyl monophosphate]: in the series with Lewis lung carcinomas, the survival result was “enhanced survival” and the tumor growth result is given as “controlled tumor growth”.

For the molecule `NS(=O)(=O)NCCNc1nonc1C(=NO)Nc1ccc(F)c(Br)c1` [Epacadostat], the trial outcome with melanoma (combined with the PD-1 antagonist pembrolizumab) is reported as “no significant benefit”. In the series with melanoma (randomized trial combined with pembrolizumab in patients with melanoma), the clinical efficacy entry is “clinically ineffective”. For the same molecule, the IC50 with IDO1 [4] is […].

Take `O=C(CCCCCCNC(=O)c1cnc(N(c2ccccc2)c2ccccc2Cl)nc1)NO` [ACY241]: in the series on multiple myeloma, the “efficacy against multiple myeloma” value is “effective”. As to `Cn1cc(C[C@@H](N)C(=O)O)c2ccccc21` [Indoximod, 1-methyl-D-tryptophan], the trial outcome in series [5] is “[224] Combination with sipuleucel-T yielded radiological and clinical improvement”; in the series with Metastatic breast cancer it was “[226] No improvement compared with taxane”. In the case of `O=Cc1c2[nH]c3ccccc3c2cc2[nH]c3ccccc3c12` [FICZ, 6-Formylindolo-[3,2-b]-carbazole], the metabolism / removal entry in series [3] is given as “rapidly removed”. On to `CCCNS(=O)(=O)Nc1ncnc(OCCOc2ncc(Br)cn2)c1-c1ccc(Br)cc1` [macitentan], for which the anti-tumor efficacy result in [6] is recorded as “improved anti-tumor efficacy”. `C=C1C(=O)O[C@H]2C[C@@H](C)[C@@H]3[C@@H](OC(C)=O)C[C@H](O)[C@@]3(C)[C@@H](OC(C)=O)[C@H]12` [Britannin]: the “expression of PD-L1” value with PD-L1 [7] is recorded as “reducing the expression of PD-L1”. For `COc1ccc(CCc2cc(OC)c(OC)c(OC)c2)cc1O` [erianin], in the series with PD-L1 [8], the PD-L1 expression result is “inhibited PD-L1 expression”. As to `CS(=O)(=O)Nc1ccc([N+](=O)[O-])cc1Oc1ccccc1` [nimesulide], in the series with IDO1 [9], the “induction of IDO1” value was “prevented induction of IDO1”. For `O=CC[C@@H](O)[C@H](O)[C@H](O)CO` [2-deoxyglucose], the IFNγ production result in series [1] was “inhibit IFNγ production”. In the case of `Cc1ccc(-c2cc(C(F)(F)F)nn2-c2ccc(S(N)(=O)=O)cc2)cc1` [celecoxib], the “induction of IDO1” value in the series on IDO1 [10] is recorded as “prevented the induction of IDO1”.

For the molecule `[N-]=[N+]=CC(=O)CC[C@H](N)C(=O)O` [DON, 6-diazo-5-oxo-L-norleucine], the T cell activation entry in the series with T cell activation is “inhibited T cell activation”. Turning to `CC(=O)NCCc1c[nH]c2ccc(O)cc12` [N-acetyl-5-hydroxy-tryptamine], the “mode of action on IDO activity” value in the series on IDO [11] was “positive allosteric modulator”. Turning to `O=c1c(O)c(-c2cc(O)c(O)c(O)c2)oc2cc(O)cc(O)c12` [myricetin], in the series with PD-L1 [12], the “induction of PD-L1 by IFNγ” value is “prevent the induction”. For the same molecule, the “induction of IDO by IFNγ” value in the series with IDO [13] is reported as “prevent the induction”.

With `CCCCCCCC1=Nc2ccccc2C(=O)C1O` (stereo not shown) [PQS, 2-heptyl-3-hydroxy-4-quinolone], the “expression of IDO1” value with IDO1 [14] was “inhibits”. Further, in the series with IDO2 [15], the “expression of IDO2” value is “inhibits”. On to `Nc1ncn([C@H]2C[C@H](O)[C@@H](CO)O2)c(=O)n1` [decitabine], for which, in the series with experimental arthritis, the occurrence of relapse entry is “prevented the occurrence of relapse” and the symptoms of arthritis entry is listed as “reduced the symptoms of arthritis”.
